By IC50 is commonly meant the concentration at which inhibition is half-maximal.

Drawing on patent publication US10550140B2 (Achillion Pharmaceuticals, Inc., priority 2014, dated 2020), this text covers IC50 for one compound.

In this test the target is Human factor D (Homo sapiens (Human), UniProt P00746). Description: Human Factor D Assay. The test is classed as biochemical. The procedure: The assay of Example 8 was used to determine the IC50's of the compounds. Other standard factor D inhibition assays are also available.
Chain of Human factor D (P00746 26-253): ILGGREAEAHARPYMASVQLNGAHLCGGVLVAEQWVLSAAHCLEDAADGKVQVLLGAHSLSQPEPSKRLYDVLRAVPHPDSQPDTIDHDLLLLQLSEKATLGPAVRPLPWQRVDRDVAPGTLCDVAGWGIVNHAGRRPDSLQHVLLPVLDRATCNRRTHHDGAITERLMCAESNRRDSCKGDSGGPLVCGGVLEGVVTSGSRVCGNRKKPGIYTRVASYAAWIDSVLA
Example 8. Human Factor D Assay
Human factor D (purified from human serum, Complement Technology, Inc.) at 80 nM final concentration is incubated with test compound at various concentrations for 5 minutes at room temperature in 50 mM Tris, 1M NaCl, pH 7.5. A synthetic substrate Z-L-Lys-SBzl and DTNB (Ellman's reagent) are added to final concentrations of 100 μM each. The increase in color is recorded at OD405 nm in a microplate in kinetic mode over 30 minutes with 30 second time points in a spectrofluorimeter. IC50 values are calculated by non-linear regression from the percentage of inhibition of complement factor D activity as a function of test compound concentration.

As to `CC(=O)c1cn(CC(=O)N2C[C@H](F)C[C@H]2C(=O)Nc2cccc(Br)c2)c2ccc(Oc3ncc(Br)cn3)cc12` [Compound 35], the IC50 is under 1000 nM.
